The test system of experiment [1] is Claudin-5. Kind of experiment: Pathological blood-brain barrier Transwell model (bEnd.3 co-incubated with U87 MG), Claudin-5 immunofluorescence. In kind it is cell-based. The conditions noted are these: bEnd.3/U87 MG co-incubation, 24 hours; FIG. 8.
Description: A transwell model of co-incubation of brain microvascular endothelial cells bEnd.3 and glioma cells U87 MG simulates a pathological blood-brain barrier. Axitinib was allowed to act on the Transwell chamber. After 24 hours, immunofluorescent staining was performed on bEnd.3 cells on the Transwell chamber membrane. A physiological blood-brain barrier simulated by a Transwell model of brain microvascular endothelial cell bEnd.3 was used as a positive control group. […] Panel B is the result of fluorescence semi-quantitative analysis of Claudin-5 expression by Image J (n=3).
Axitinib was added to the Transwell chamber. After the drug was allowed to act for 24 hours, the Transwell cell with bEnd.3 cells grown was transferred to another 12-well plate, washed with PBS for three times, fixed with 4% formaldehyde, and blocked with 10% bovine serum albumin for 30 minutes. Thereafter, Claudin-5 primary antibody was added and incubated at 4° C. overnight, and finally was incubated with fluorescently-labeled secondary antibody for 1 hour. The nucleus was counterstained with DAPI.
For experiment [2], the system named is pathological blood-brain barrier (bEnd.3 cells co-incubated with U87 MG glioma cells). Kind of experiment: Pathological blood-brain barrier Transwell model (bEnd.3 co-incubated with U87 MG), cell transmembrane resistance. It is filed as cell-based. Particulars: 24 hours.
Description: A Transwell model of co-incubation of brain microvascular endothelial cells bEnd.3 and glioma cells U87 MG simulates a pathological blood-brain barrier. Axitinib at different concentrations (0, 0.05 μg/mL, 0.1 μg/mL, 0.5 g/mL, 1 μg/mL, 4 μg/mL, 5 μg/mL, 10 μg/mL, 20 μg/mL) was allowed to act on the Transwell chamber. After 24 hours, cell transmembrane resistances were detected by a cell resistance meter. A physiological blood-brain barrier simulated by a Transwell model of brain microvascular endothelial cell bEnd.3 was used as a positive control (n=5).
A Transwell model of co-incubation of brain microvascular endothelial cells bEnd.3 and glioma cells U87 MG simulates a pathological blood-brain barrier. Axitinib (10 μM), an Axitinib analog of phosphatidylinositol kinase (PI3K) inhibitor LY294002 (10 μM), protein kinase B (AKT) agonist SC79 (10 μM) were added into the Transwell chamber. After 24 hours, cell transmembrane resistance was detected by a cell resistance meter. A physiological blood-brain barrier simulated by a Transwell model of brain microvascular endothelial cell bEnd.3 was used as a positive control (n=5).
U87 MG glioma cells were used as brain tumor model cells. 1.5 mL suspension of well-grown U87 MG cell suspension was inoculated in a 12-well plate at a cell density of 2×10^5/well. Incubation was continued at 37° C. and 5% CO2 until the cells adhere. Then, the physiological blood-brain barrier as constructed by Method 1 in the Example 1, i.e., the Transwell chamber with bEnd.3 cells grown, was transferred to the 12-well plate with U87 MG cells grown. Co-culture was further continued for 24 hours to obtain a cell model of pathological blood-brain barrier.
The physiological blood-brain barrier as constructed by Method 2 in the Example 1 was used as a model. Axitinib at different concentrations was added to the Transwell chamber for stimulation.
The physiological blood-brain barrier and the pathological blood-brain barrier as constructed in Method 1 and Method 2 in the Example 1 were used as models, respectively. Axitinib (10 μM), an Axitinib analog of phosphatidylinositol kinase (PI3K) inhibitor LY294002 (10 μM), protein kinase B (AKT) agonist SC79 (10 μM) were added into the Transwell chamber of the pathological blood-brain barrier model as constructed in Method 2 in the Example 1. After 24 hours, the Transwell chamber with bEnd.3 cells grown was transferred to another 12-well plate, washed with PBS for 3 times, and 0.5 mL HBSS nutrient solution was added to the chamber, and the outer chamber was supplemented with 1.5 mL HBSS nutrient solution. The cells were equilibrated at 37° C. for 15 minutes. Cell transmembrane resistance was detected by a cell resistance meter.
The subject of experiment [3] is pathological blood-brain barrier (bEnd.3 cells with tumor cell culture). Description: Tumor cell culture co-incubated with bEnd.3 cells (U87MG removed), cell transmembrane resistance. It is filed as cell-based. The conditions noted are these: tumor cell culture kept, 10 μM, 24 hours, FIG. 15. As to the method:
FIG. 15: Co-incubation of a tumor cell culture and bEnd.3 cells in vitro, regulation of blood-brain barrier permeability by Axitinib and an analog thereof, and determination of a cell transmembrane resistance. A Transwell model of co-incubation of brain microvascular endothelial cells bEnd.3 and glioma cells U87 MG simulates a pathological blood-brain barrier. Once a pathological blood-brain barrier model was formed, U87MG glioma cells in the outer chamber of Transwell were removed, while the tumor cell cultures were remained. Axitinib (10 μM) and an Axitinib analog of phosphatidylinositol kinase (PI3K) inhibitor LY294002 (10 μM) were added to the Transwell chamber. After 24 hours, cell transmembrane resistance was detected by a cell resistance meter. A physiological blood-brain barrier simulated by a Transwell model of brain microvascular endothelial cell bEnd.3 was used as a positive control (n=5).
The physiological blood-brain barrier and the pathological blood-brain barrier as constructed in Method 1 and Method 2 in the Example 1 were used as models, respectively. Once a pathological blood-brain barrier model was formed, U87MG glioma cells in the outer chamber of Transwell were removed, while the tumor cell cultures were remained. […] Cell transmembrane resistance was detected by a cell resistance meter.

The test system is the same in experiment [4]. Description: Tumor cell culture co-incubated with bEnd.3 cells (U87MG removed), FITC-dextran transmembrane transport. It is filed as cell-based. Particulars: tumor cell culture kept, 10 μM, 24 hours, FIG. 16. As to the method: FIG. 16: Co-incubation of a tumor cell culture and bEnd.3 cells in vitro, and FITC-dextran transmembrane transport efficiency. A Transwell model of co-incubation of brain microvascular endothelial cells bEnd.3 and glioma cells U87 MG simulates a pathological blood-brain barrier. Once a pathological blood-brain barrier model was formed, U87MG glioma cells in the outer chamber of Transwell were removed, while the tumor cell cultures were remained. Axitinib (10 μM) and an Axitinib analog of phosphatidylinositol kinase (PI3K) inhibitor LY294002 (10 μM) were added to the Transwell chamber. After 24 hours, the Transwell chamber and the outer chamber were cleaned with PBS, and a FITC-dextran solution in HBSS was added to the Transwell chamber, and was allowed to act for 4 hours. The result as shown in the figure was the FITC-dextran concentration of the Transwell outer chamber as detected by a fluorescence spectrophotometer. […]
The physiological blood-brain barrier and the pathological blood-brain barrier as constructed in Method 1 and Method 2 in the Example 1 were used as models, respectively. […] After the cells were incubated at 37° C. in the dark for 4 hours, concentration of FITC-dextran transferred to the outer chamber via the Transwell chamber was detected with a fluorescence spectrophotometer.

For experiment [5], the system named is pathological blood-brain barrier. Description: Evans blue permeation into the brain, in situ glioma model. It is filed as in vivo, BABL/c nude mice. Particulars: glioma nude mice, 10 mg/kg tail vein, Evans blue after 24 hours; vs tumor-bearing control; FIGS. 18 and 19.
Description: After 24 hours, an Evans blue solution was injected into tail veins at an administration dose of 5 mg/kg.
After 24 hours, an Evans blue solution was injected into tail veins at an administration dose of 5 mg/kg. […] The Evans blue was extracted from the brain tissue with an organic solvent of N,N-dimethylformamide. The result as shown in the figure is the amount of Evans blue permeated into the brain as quantitatively detected by ultraviolet spectrophotometry (n=3).
Male BABL/c nude mice (20±2 g) were used as the model animals. U87-luci glioma cells expressing luciferase were inoculated in the striatum area of nude mice at a concentration of 5×10^5 cells/5 μL by means of a brain stereotaxic instrument (inoculation coordinates, 0.8 mm on the anterior side of bregma, 2 mm on the right side, and 3 mm in depth), to construct an in situ glioma model. […] After 24 hours, an Evans blue solution was injected into tail veins at an administration dose of 5 mg/kg. […] The distribution intensity of Evans blue in the brain tissue was qualitatively observed with a small animal live imaging instrument. The Evans blue was extracted from the brain tissue with an organic solvent of N,N-dimethylformamide. The amount of Evans blue permeated into the brain was quantitatively detected by ultraviolet spectrophotometry.
Experiment [6] has as its system U87-luci glioma. Kind of experiment: Glioma growth (bioluminescent imaging) and life cycle, in situ glioma model. The conditions noted are these: 10 mg/kg tail vein. In kind it is in vivo, BABL/c nude mice.
Description: Administration was performed for 7 consecutive days. Growth of glioma was monitored by a bioluminescent imaging technology. […] A physiological saline group was used as control.
Male BABL/c nude mice (20±2 g) were used as the model animals. U87-luci glioma cells expressing luciferase were inoculated in the striatum area of nude mice at a concentration of 5×10^5 cells/5 μL by means of a brain stereotaxic instrument (inoculation coordinates, 0.8 mm on the anterior side of bregma, 2 mm on the right side, and 3 mm in depth), to construct an in situ glioma model. […] Administration was performed for 7 consecutive days. Growth of glioma was monitored by a bioluminescent imaging technology.

With `CNC(=O)c1ccccc1Sc1ccc2c(/C=C/c3ccccn3)n[nH]c2c1` [Axitinib, N-methyl-2-((3-((1E)-2-(pyridine-2-yl)ethenyl)-1H-indazol-6-yl)sulfanyl)benzamide], the “Expression of tight junction protein Claudin-5” value in experiment [1] is given as “reduce down-regulation of expression of the blood-brain barrier tight junction protein of Claudin-5”. The “Cell transmembrane resistance (blood-brain barrier function)” value in experiment [2] (10 μM, FIG. 10) was “promote recovery of a blood-brain barrier function from a pathologically impaired state to a state close to a physiological barrier”; in experiment [3], “the blood-brain barrier function is recovered from a pathologically impaired state to a state close to a physiological barrier”. The “Concentration at which blood-brain barrier permeability is effectively reduced (cell transmembrane resistance)” value was 0.5˜20 μg/mL in experiment [2] (FIG. 9) and 1.29 to 51.75 µM in experiment [2] (FIG. 9, same range in μM). For the same molecule, in experiment [2] (Axitinib 0-20 μg/mL, FIG. 9), the “Cell transmembrane resistance, dependence on concentration” value was “dose-dependent”. In experiment [4], the “FITC-dextran transmembrane transport (blood-brain barrier permeability)” value is on record as “blood-brain barrier permeability is reduced”. Further, the “Amount of Evans blue permeated into the brain” value in experiment [5] is on record as “the amount of Evans blue permeated into the brain is reduced”. Besides, the “Growth of glioma in situ” value in experiment [6] (7 consecutive days from Day 4, vs saline control, FIG. 20) is given as “significantly inhibited”. In addition, the “Life cycle of the animal” value in experiment [6] (7 consecutive days, FIG. 21) was “significantly prolonged”.

These data come from patent US12419875B2, “Use of Axitinib and analogs thereof in preparing blood-brain barrier permeability regulator” (ZHEJIANG UNIVERSITY, priority 2018, dated 2025).
